Reference: paper PMC12593371, “Whole-Body Disposition and Metabolism of [^14C]-2,4,4′-Trichlorobiphenyl (PCB28) Following Lung Administration in Rats” (Environmental Science & Technology, 2025)

Assay: Toxicokinetic parameters by noncompartmental analysis after intratracheal administration of [14C]-PCB28
Format: in vivo, Male Sprague–Dawley rats
From the text: Male Sprague–Dawley rats (8 weeks old) weighing 230–285 g (mean of 256 g) were used in this study (Envigo, Indianapolis, IN). Male rats were selected to maintain consistency with previous toxicokinetic investigations of lower-chlorinated PCBs, specifically the study on intratracheally instilled ^14C-labeled dichlorinated PCB11, which also utilized male rats. This approach facilitated direct comparison across studies and contributed to a more comprehensive toxicokinetic data set for LC-PCBs following inhalation exposure. A PCB toxicokinetic study being published separately investigated placental transfer and fetal uptake in pregnant females. All animals were handled in compliance with an approved Institutional Animal Care and Use Committee protocol (protocol#: 3091097 approved on 10/12/2023). Rats were pair-housed in a light and temperature-controlled environment with access to food and water ad libitum. After 1 week of acclimatization, rats were assigned to either a high-dose (HD) group (n = 9) or a low-dose (LD) group (n = 5) at random. Control rats (n = 3) were exposed to a single dose of unlabeled PCB28 (42 μg in 200 μL) and necropsied 50 min after exposure to establish background levels for radioactivity calculations in blank tissues. […] Therefore, animal numbers were customized between groups to most efficiently utilize the limited available ^14C-PCB28 stock in our lab.
Animals in the HD group were intratracheally (i.t.) administered 42 μg of a one-time single dose of [^14C]-PCB28 in 200 μL of vehicle, while animals in the LD group received 4.2 μg of [^14C]-PCB28 in 100 μL of vehicle. The i.t. route for dosing was selected due to the limited availability and extraordinary cost of the radiolabeled PCB28, and to avoid ^14C contamination of the inhalation exposure apparatus. All i.t. instillation was performed under light anesthesia (4% isoflurane via a precision vaporizer Fortec, Cyprane, Keighley, UK). […] Air was drawn from the chamber at 6.0 L/min through a cartridge containing XAD-2 polymeric resin (Amberlite, Millipore Sigma, Burlington, MA) to capture any exhaled [^14C]-PCB28. For the longer time points (720 and 1440 min), individual rats were placed in metabolic cages following a similar protocol for excreta and exhaled breath collection. After exposure, the inner walls of the chamber were rinsed separately with water, acetone, and hexane (25 – 45 mL) and wiped to measure radioactivity. Rat fur was also wiped and analyzed for radioactivity. The rats exposed to the HD were euthanized using isoflurane and exsanguination via cardiac puncture at 12, 25, 50, 100, 200, 400, 720, and 1440 min postexposure (n = 1 per time point except n = 2 for 200 min). […] Euthanasia was consistently performed during the light cycle, except in the case of the 720 min time point, wherein euthanasia occurred outside the light cycle.
Serum and blood cells were separated. Two to six technical replicates were collected from 36 tissue types and digestive matter (diluted in ultrapure water) from 5 different GI tract locations. Muscle and adipose tissue samples were obtained from various locations. The collected tissue samples were placed in scintillation vials containing 1 mL of solvable cocktail and kept at 37 °C overnight for complete solubilization. To enable subsequent analyses, the solubilized tissue samples underwent a 2-h heating phase at 50 °C. For the bone, feces, and digestive matter, 1 mL of isopropyl alcohol was added. For samples displaying darker coloration, a controlled volume of 30% hydrogen peroxide (100 to 300 μL) was slowly added in increments to remove potential interference.

## Clc1ccc(-c2ccc(Cl)cc2Cl)cc1 [PCB28, 2,4,4′-trichlorobiphenyl]
Adipose tissue
  AUC, high dose compared to low dose: 18.7 fold
adipose, high dose (42 μg i.t.)
  C24: 385 dpm/mg
adipose, low dose (4.2 μg i.t.)
  C24: 63.7 dpm/mg
bladder, high dose (42 μg i.t.)
  C24: 8.0 dpm/mg
bladder, low dose (4.2 μg i.t.)
  C24: 6.4 dpm/mg
brain, high dose (42 μg i.t.)
  C24: 11.0 dpm/mg
brain, low dose (4.2 μg i.t.)
  C24: 2.4 dpm/mg
bronchi, high dose (42 μg i.t.)
  C24: 205 dpm/mg
bronchi, low dose (4.2 μg i.t.)
  C24: 48.6 dpm/mg
esophagus, high dose (42 μg i.t.)
  C24: 13.0 dpm/mg
esophagus, low dose (4.2 μg i.t.)
  C24: 8.8 dpm/mg
heart, high dose (42 μg i.t.)
  C24: 17.0 dpm/mg
heart, low dose (4.2 μg i.t.)
  C24: 3.2 dpm/mg
High dose (42 μg i.t.)
  blood/plasma ratio (blood-to-serum ratio): 0.89
kidney, high dose (42 μg i.t.)
  C24: 23.0 dpm/mg
kidney, low dose (4.2 μg i.t.)
  C24: 5.6 dpm/mg
liver, high dose (42 μg i.t.)
  C24: 22.0 dpm/mg
liver, low dose (4.2 μg i.t.)
  C24: 5.7 dpm/mg
Low dose (4.2 μg i.t.)
  blood/plasma ratio (blood-to-serum ratio): 0.89
lung, high dose (42 μg i.t.)
  C24: 44.0 dpm/mg
lung, low dose (4.2 μg i.t.)
  C24: 6.4 dpm/mg
muscle
  AUC, high dose compared to low dose: 15.7 fold
muscle, high dose (42 μg i.t.)
  C24: 10.0 dpm/mg
muscle, low dose (4.2 μg i.t.)
  C24: 3.2 dpm/mg
pancreas, high dose (42 μg i.t.)
  C24: 93.0 dpm/mg
pancreas, low dose (4.2 μg i.t.)
  C24: 29.5 dpm/mg
prostate
  AUC, high dose compared to low dose: 17.1 fold
prostate, high dose (42 μg i.t.)
  C24: 89.0 dpm/mg
prostate, low dose (4.2 μg i.t.)
  C24: 15.9 dpm/mg
serum
  serum AUC0–24 h, high dose compared to low dose: approximately 10 fold
serum, high dose (42 μg i.t.), Table 1 prints mean (C–V%) without naming the dose
  T1/2: 12 h
serum, low dose (4.2 μg i.t.)
  C24: 0.80 dpm/mg
skin
  AUC, high dose compared to low dose: 15.1 fold
skin, high dose (42 μg i.t.)
  C24: 155 dpm/mg
skin, low dose (4.2 μg i.t.)
  C24: 34.2 dpm/mg
spleen
  AUC, high dose compared to low dose: 16.4 fold
spleen, high dose (42 μg i.t.)
  C24: 18.0 dpm/mg
spleen, low dose (4.2 μg i.t.)
  C24: 3.2 dpm/mg
testis, high dose (42 μg i.t.)
  C24: 6.0 dpm/mg
testis, low dose (4.2 μg i.t.)
  C24: 1.6 dpm/mg
thymus, high dose (42 μg i.t.)
  C24: 23.0 dpm/mg
thymus, low dose (4.2 μg i.t.)
  C24: 4.8 dpm/mg
thyroid, high dose (42 μg i.t.)
  C24: 72.0 dpm/mg
thyroid, low dose (4.2 μg i.t.)
  C24: 9.6 dpm/mg
trachea, high dose (42 μg i.t.)
  C24: 86.0 dpm/mg
trachea, low dose (4.2 μg i.t.)
  C24: 21.5 dpm/mg
